Assay results taken from PubChem BioAssay (NCI).
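Compound exposure: 48 hours, 5 concentrations, 96-well plates. At the TGI there is no net growth.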

How the values were obtained:
Test in all cases: growth of human tumour cells (NCI), 48 h
M14 melanoma = tested on: M14 melanoma
NCI/ADR-RES ovarian = tested on: NCI/ADR-RES ovarian
SW-620 colon = tested on: SW-620 colon
IGROV1 ovarian = tested on: IGROV1 ovarian
OVCAR-4 ovarian = tested on: OVCAR-4 ovarian
UACC-62 melanoma = tested on: UACC-62 melanoma
MCF7 breast = tested on: MCF7 breast
PC-3 prostate = tested on: PC-3 prostate
NCI-H460 lung = tested on: NCI-H460 lung
TK-10 renal = tested on: TK-10 renal
MDA-N = tested on: MDA-N
HL-60(TB) leukemia = tested on: HL-60(TB) leukemia
SK-MEL-2 melanoma = tested on: SK-MEL-2 melanoma
HS 578T breast = tested on: HS 578T breast
SNB-19 CNS = tested on: SNB-19 CNS
T-47D breast = tested on: T-47D breast
DU-145 prostate = tested on: DU-145 prostate
SNB-75 CNS = tested on: SNB-75 CNS
OVCAR-8 ovarian = tested on: OVCAR-8 ovarian

Structure (SMILES) | TGI (M14 melanoma) | TGI (NCI/ADR-RES ovarian) | TGI (SW-620 colon) | TGI (IGROV1 ovarian) | TGI (OVCAR-4 ovarian) | TGI (UACC-62 melanoma) | TGI (MCF7 breast) | TGI (PC-3 prostate) | TGI (NCI-H460 lung) | TGI (TK-10 renal) | TGI (MDA-N) | TGI (HL-60(TB) leukemia) | TGI (SK-MEL-2 melanoma) | TGI (HS 578T breast) | TGI (SNB-19 CNS) | TGI (T-47D breast) | TGI (DU-145 prostate) | TGI (SNB-75 CNS) | TGI (OVCAR-8 ovarian)
COC(=O)/C=C(/C(=O)OC)c1cc2ccc3c([nH]c4ccccc43)c(C)c-2c1 | 16 µM | > 100 µM | 27.1 µM | 13.1 µM | 69.3 µM | 17.8 µM | 13.3 µM | 14.2 µM | 18.6 µM | > 100 µM | 9.9 µM | 12.5 µM | 26.8 µM | 8.91 µM | 23.2 µM | > 100 µM | 42.2 µM | 59.2 µM | 25.2 µM
O=C(O)CC1NC(/C(=C/c2ccccc2O)NC(=O)c2ccccc2)OC1=O (stereo not drawn) | > 100 µM | > 100 µM | > 100 µM | > 70.9 µM | > 38.2 µM | > 100 µM | > 100 µM | > 100 µM | > 100 µM | > 100 µM | > 100 µM | > 100 µM | > 100 µM | > 100 µM | 49.5 µM | > 100 µM | > 100 µM | > 63.6 µM | > 87.8 µM
CN(C)CC1CCC/C(=C\c2ccc(OC(=O)/C=C/c3ccccc3)cc2)C1=O (stereo not drawn) | 5.35 µM | 5.12 µM | 4.94 µM | 14 µM | 9.44 µM | 15.8 µM | 1.93 µM | 19.5 µM | 21.9 µM | 3.76 µM | 6.28 µM | > 100 µM | 7.79 µM | 13.1 µM | 20.7 µM | 2.58 µM | 7.11 µM | 17 µM | 3.9 µM
O=c1cc(N2CCCC2)[nH]c(=O)n1-c1ccc(F)cc1 | > 100 µM | > 100 µM | > 100 µM | > 100 µM | > 100 µM | > 100 µM | > 100 µM | > 100 µM | > 100 µM | > 100 µM | > 100 µM | > 100 µM | > 100 µM | > 100 µM | > 100 µM | > 100 µM | > 100 µM | > 100 µM | > 100 µM
COc1cccc(C2ON=C(c3ccccc3)N2C23CC4CC(CC(C4)C2)C3)c1 (stereo not drawn) | > 10 µM | > 10 µM | > 10 µM | > 10 µM | > 10 µM | > 10 µM | > 10 µM | > 10 µM | > 10 µM | > 10 µM | > 10 µM | > 10 µM | > 10 µM | > 10 µM | > 10 µM | > 10 µM | > 10 µM | > 10 µM | > 10 µM
O=C(CC(C(=O)c1cccs1)c1cccs1)c1ccccc1Cl (stereo not drawn) | > 100 µM | > 100 µM | > 100 µM | > 100 µM | > 100 µM | > 100 µM | > 100 µM | > 100 µM | > 100 µM | > 100 µM | > 100 µM | > 100 µM | > 100 µM | > 100 µM | > 100 µM | > 100 µM | > 100 µM | > 100 µM | > 100 µM
CO/C(=C/C(=O)C(Cl)(Cl)Cl)CC/C(=C\C(=O)C(Cl)(Cl)Cl)OC | 88.3 µM | > 100 µM | > 100 µM | 35.8 µM | 51 µM | 46.8 µM | 79.8 µM | 87.7 µM | 99.3 µM | 73.2 µM | 66 µM | 80.5 µM | 84.1 µM | > 100 µM | > 100 µM | 72.5 µM | 56.7 µM | > 100 µM | 56 µM
O=C(NNCC(F)(F)F)c1ccncc1 | > 100 µM | > 100 µM | > 100 µM | > 100 µM | > 100 µM | > 100 µM | > 100 µM | > 100 µM | > 100 µM | > 100 µM | > 100 µM | > 100 µM | > 100 µM | > 100 µM | > 100 µM | > 100 µM | > 100 µM | > 100 µM | > 100 µM
C=CCc1cc(C=C(C#N)C#N)cc(OC)c1O | > 100 µM | > 100 µM | > 100 µM | > 100 µM | > 100 µM | > 100 µM | > 100 µM | > 100 µM | > 100 µM | > 100 µM | > 100 µM | 89.1 µM | > 100 µM | > 100 µM | > 100 µM | > 100 µM | > 100 µM | > 100 µM | > 100 µM
C[N+](C)(C)/N=C/c1ccc(O)c(O)c1 | > 100 µM | > 100 µM | > 100 µM | > 100 µM | > 100 µM | > 100 µM | > 100 µM | > 100 µM | > 100 µM | > 100 µM | > 100 µM | > 100 µM | > 100 µM | > 100 µM | > 100 µM | > 100 µM | > 100 µM | > 100 µM | > 100 µM
c1cc2nnc1SCCCSc1ccc(nn1)SCCCSc1ccc(nn1)SCCCS2 | > 100 µM | > 100 µM | > 100 µM | > 100 µM | > 100 µM | > 100 µM | > 100 µM | > 100 µM | > 100 µM | > 100 µM | > 100 µM | > 100 µM | > 100 µM | > 100 µM | > 100 µM | > 100 µM | > 100 µM | 83.4 µM | > 100 µM
c1ccc(-c2nnc(SCc3c[nH]c4ccccc34)n2-c2ccccc2)cc1 | > 100 µM | > 100 µM | > 100 µM | > 100 µM | > 100 µM | 66.7 µM | > 100 µM | 93.9 µM | > 100 µM | 64.1 µM | > 100 µM | > 100 µM | > 100 µM | 93.5 µM | > 100 µM | > 100 µM | > 100 µM | 57.6 µM | > 100 µM
NC(=O)C(=CNC(=S)Nc1ccc(Cl)c(Cl)c1)C(N)=O | > 100 µM | > 100 µM | > 100 µM | > 100 µM | > 100 µM | > 100 µM | > 100 µM | > 100 µM | > 100 µM | > 100 µM | > 100 µM | > 100 µM | > 100 µM | > 88.9 µM | > 100 µM | > 72.9 µM | > 100 µM | > 100 µM | > 100 µM
Nn1c(CCCCCCCCc2nnc(COc3ccccc3)n2N)nnc1COc1ccccc1 | > 100 µM | > 100 µM | > 100 µM | > 100 µM | > 100 µM | > 100 µM | > 100 µM | > 100 µM | > 100 µM | > 100 µM | > 100 µM | > 100 µM | > 100 µM | > 100 µM | > 100 µM | > 100 µM | > 100 µM | > 100 µM | > 100 µM
CSc1c(C(=O)Nc2ccc(C)cc2)c(N)n(N)c(=O)c1C#N | > 100 µM | > 100 µM | > 100 µM | > 100 µM | > 100 µM | > 100 µM | > 100 µM | > 100 µM | > 100 µM | > 100 µM | > 100 µM | > 100 µM | > 100 µM | > 100 µM | > 100 µM | > 100 µM | > 100 µM | > 100 µM | > 100 µM
CCCCc1ccc(-n2sc3ncc([N+](=O)[O-])cc3c2=O)cc1 | 43.7 µM | 34.4 µM | 35.9 µM | 28.1 µM | 35.2 µM | 21.8 µM | 40.5 µM | 18.7 µM | 25.3 µM | 61.9 µM | 28 µM | 38 µM | 7.43 µM | 30.8 µM | 48.6 µM | 25.9 µM | 57.9 µM | 57.2 µM | 61 µM
CC1CCCCN1CC(=O)c1ccc2c(c1)Sc1ccccc1O2 (stereo not drawn) | 38.3 µM | 35.5 µM | 42.4 µM | 19.9 µM | 28.6 µM | 30.1 µM | 33.6 µM | 26.1 µM | 29.7 µM | 42.5 µM | 32.2 µM | 47 µM | 32.4 µM | 25.7 µM | 36 µM | 48 µM | 67.8 µM | 22.9 µM | 30.8 µM
CCCCCCCNC(P(=O)(O)O)P(=O)(O)O | > 100 µM | > 100 µM | > 100 µM | > 100 µM | > 100 µM | > 100 µM | > 100 µM | > 100 µM | > 100 µM | > 100 µM | > 100 µM | > 100 µM | > 100 µM | 97.5 µM | > 100 µM | > 100 µM | > 100 µM | 43.3 µM | > 100 µM
CC(C)COC(=O)OC(=O)c1ccc(N(C)Cc2cnc3nc(N)nc(N)c3n2)cc1 | > 100 µM | > 100 µM | > 100 µM | > 100 µM | > 100 µM | > 100 µM | > 100 µM | > 100 µM | > 100 µM | > 100 µM | > 100 µM | > 100 µM | > 100 µM | > 100 µM | > 100 µM | > 100 µM | > 100 µM | > 100 µM | > 100 µM
Cc1c(-c2ccccc2)c(C#N)c2nnn(C3CCCCC3)c(=O)n12 | > 100 µM | > 100 µM | > 100 µM | > 100 µM | > 100 µM | > 100 µM | > 100 µM | > 100 µM | > 100 µM | > 100 µM | > 100 µM | > 100 µM | > 100 µM | > 100 µM | > 100 µM | > 100 µM | > 100 µM | 68.8 µM | > 100 µM
Cc1cc(C)c2c(c1)C1=NCCN1C2(O)c1ccc(Cl)cc1 (stereo not drawn) | 28.4 µM | 30.2 µM | 29.2 µM | 27.4 µM | 29.7 µM | 29.4 µM | 34.3 µM | 36.3 µM | 29.3 µM | 15.5 µM | 28.3 µM | 49.4 µM | 34.7 µM | 32 µM | 31.7 µM | 41.7 µM | 40.5 µM | 25 µM | 30.2 µM
CC(=O)Oc1c2c(c(CC=C(C)C)c3c1C(=O)C1=C[C@@H]4CC5C(C)(C)OC(C/C=C(/C)C(=O)O)(C4=O)[C@@]15O3)OC(C)(CCC=C(C)C)C=C2 (stereo partly drawn) | 0.814 µM | 2.7 µM | 0.241 µM | 0.294 µM | 0.567 µM | 0.86 µM | 1.4 µM | 1.24 µM | 1.97 µM | 0.585 µM | 0.536 µM | 10.6 µM | 0.982 µM | 1.44 µM | 1.38 µM | 0.439 µM | 0.838 µM | 1.39 µM | 0.747 µM
